The results in this text go back to patent US20220009874A1, “CATALYTIC SYNTHESIS OF ANTI-UV AND ANTIOXIDANT CONJUGATED 8-8 DIMERS IN A GREEN SOLVENT” (INSTITUT DES SCIENCES ET INDUSTRIES DU VIVANT ET DE …, priority 2018, published 2022).

Each structure is given as a SMILES string.

A short description of the data set: UV absorbance of the dimers in ethanol compared with sinapoyl malate. Type of data set: physicochemical. The settings on record: 10 μmol·L^−1 in ethanol; for absorption band: FIG. 1. From the text: a. […] A change of the R3 radical can also affect these properties (FIG. 11).

On to `COc1cc(/C=C/C(=O)OC(CC(=O)O)C(=O)O)cc(OC)c1O` (stereo not drawn) [sinapoyl malate, reference compound], for which the absorption band is 200-370 nm. As for `CCOC(=O)C(=Cc1cc(OC)c(O)c(OC)c1)C(=Cc1cc(OC)c(O)c(OC)c1)C(=O)OCC` [ethyl β-β disinapate], the absorption band is 200-400 nm. In addition, the “anti-UV properties (UV absorbance) compared with sinapoyl malate” value (FIGS. 1 to 16) is listed as “higher anti-UV properties than sinapoyl malate”.
